Results from US9006225B2, “Stable pharmaceutical composition” (Asahi Kasei Pharma Corporation, priority 2008, dated 2015).

Columns and labels:
Assay type in all cases: physicochemical
[1] = Coloring of compound solutions with glucose after storage (Experimental Example 4); design: key: −: No coloring; +: Coloring; ++: Marked coloring; conditions: for Degree of coloring, Sample solution after storage at 60° C. for 6 days: 10 mg compound in methanol 2 mL + 1 mL glucose aqueous solution 10 mg/mL; for Degree of coloring, Control solution after storage at 60° C. for 6 days: 10 mg compound in methanol 2 mL + 1 mL purified water (no glucose)
Method: The compounds of Preparation Examples 2 to 5 and 7 were each weighed in an amount of 10 mg in a stoppered test tube, added with methanol (2 mL), dissolved in the methanol, and then further added with a glucose aqueous solution (1 mL) of 10 mg/mL concentration to prepare sample solutions. Separately, the compounds of Preparation Examples 2 to 5 and 7 were each weighed in an amount of 10 mg in a stoppered test tube, added with methanol (2 mL), dissolved in the methanol, and then further added with purified water (1 mL) to prepare control solutions. The prepared sample solutions and the control solutions were stored in an incubator (Minijet Oven, Toyama Sangyo) at 60° C. for 6 days.

[2] = Coloring of solutions of the compound of Preparation Example 7 with additives after storage (Experimental Example 5); design: key to Degree of coloring, Sample solution after storage at 60° C. for 6 days / Degree of coloring, Control solution after storage at 60° C. for 6 days: −: No coloring; +: Coloring; ++: Marked coloring; conditions: for Degree of coloring, Sample solution after storage at 60° C. for 6 days: 10 mg compound of Preparation Example 7 in methanol 2 mL + 1 mL of 10 mg/mL aqueous solution of the additive; for Coloring of the solution of the compound of Preparation Example 7 by the influence of the additive: 60° C. for 6 days, methanol/water; for Degree of coloring, Control solution after storage at 60° C. for 6 days: control: 10 mg compound of Preparation Example 7 in methanol 2 mL + 1 mL purified water, no additive
Method: The compound obtained according to the method of Preparation Example 7 was weighed in an amount of 10 mg in a stoppered test tube, added with methanol (2 mL) for dissolution, and then further added with a 10 mg/mL aqueous solution of each of additives shown in Table 5 (1 mL) to prepare a sample solution. Separately, the compound obtained according to the method of Preparation Example 7 was weighed in an amount of 10 mg in a stoppered test tube, added with methanol (2 mL) for dissolution, and then further added with purified water (1 mL) to prepare a control solution. The prepared sample solutions and the control solution were stored in an incubator (Minijet Oven, Toyama Sangyo) at 60° C. for 6 days.

[3] = Solubility of crystal forms in an aqueous solvent

Degree of coloring, Sample solution after storage at 60° C. for 6 days [1]	Degree of coloring, Control solution after storage at 60° C. for 6 days [1]	Degree of coloring, Sample solution after storage at 60° C. for 6 days [2]	Coloring of the solution of the compound of Preparation Example 7 by the influence of the additive [2]	Degree of coloring, Control solution after storage at 60° C. for 6 days [2]	Solubility in an aqueous solvent compared with the type B crystals [3]	SMILES
+	−					Cc1ccc(CCOc2c(N)cc(CCC(=O)O)cc2-c2ccc3ccccc3c2)cc1 [Compound of Preparation Example 2, 3-{3-amino-4-[2-(4-methylphenyl)ethyloxy]-5-(naphthalen-2-yl)phenyl}propionic acid]
		−	no coloring	−		OC[C@H]1O[C@H](O[C@H]2O[C@H](CO)[C@@H](O)[C@H](O)[C@H]2O)[C@H](O)[C@@H](O)[C@@H]1O [Trehalose]
		+	coloring	−		OC[C@H]1O[C@H](O[C@H]2[C@H](O)[C@@H](O)[C@H](O)O[C@@H]2CO)[C@H](O)[C@@H](O)[C@@H]1O [Maltose]
		+	coloring	−		O=C(CO)[C@@H](O)[C@H](O)[C@H](O)CO [Fructose]
++	−					Nc1cc(CCC(=O)O)cc(-c2ccc3[nH]ccc3c2)c1OCC1CCCC1 [Compound of Preparation Example 3, 3-[3-amino-4-cyclopentylmethyloxy-5-(1H-indol-5-yl)phenyl]propionic acid]
		+	coloring	−		OC[C@H]1O[C@@H](O[C@H]2[C@H](O)[C@@H](O)C(O)O[C@@H]2CO)[C@H](O)[C@@H](O)[C@H]1O (some centres unmarked) [Lactose]
		−	no coloring	−		OC[C@@H](O)[C@@H](O)[C@H](O)[C@H](O)CO [D-Mannitol]
		−	no coloring	−		OC[C@H]1O[C@@](CO)(O[C@H]2O[C@H](CO)[C@@H](O)[C@H](O)[C@H]2O)[C@@H](O)[C@@H]1O [Sucrose]
+	−					Nc1cc(CCC(=O)O)cc(-c2ccc3[nH]ncc3c2)c1OC1Cc2ccccc2C1 [Compound of Preparation Example 5, 3-[3-amino-4-(indan-2-yloxy)-5-(1H-indazol-5-yl)phenyl]propionic acid]
		−	no coloring	−		OC[C@@H](O)[C@@H](O)CO [Erythritol]
++	−					Cn1ccc2cc(-c3cc(CCC(=O)O)cc(N)c3OCC3CCCC3)ccc21 [Compound of Preparation Example 4, 3-[3-amino-4-cyclopentylmethyloxy-5-(1-methyl-1H-indol-5-yl)phenyl]propionic acid]
++	−				higher	Cn1ncc2cc(-c3cc(CCC(=O)O)cc(N)c3OC3Cc4ccccc4C3)ccc21 [Compound of Preparation Example 7, 3-[3-amino-4-(indan-2-yloxy)-5-(1-methyl-1H-indazol-5-yl)phenyl]propionic acid]
		++	coloring	−		O=C[C@H](O)[C@@H](O)[C@H](O)CO [Xylose]
